Reference: publication PMC10392092, “Structural and molecular basis for urea recognition by Prochlorococcus” (The Journal of Biological Chemistry, 2023)

What was measured:
Test in all cases: isothermal titration calorimetry
Assay type in all cases: binding
UrtA [1] = target: T1, UrtA (Prochlorococcus marinus, UniProt Q7V3V9, E146A)
T1 construct: 24-residue predicted signal peptide removed from 431-residue precursor (432 elsewhere in the source); C-terminal 6xHis tag, pET-22b, E. coli BL21(DE3); about 50 kDa; monomer; structure residues 38-431 described

UrtA [2] = target: T2, UrtA (Prochlorococcus marinus, UniProt Q7V3V9, Y141A)
T2 construct: 24-residue predicted signal peptide removed from 431-residue precursor (432 elsewhere in the source); C-terminal 6xHis tag, pET-22b, E. coli BL21(DE3); about 50 kDa; monomer; structure residues 38-431 described

UrtA [3] = target: T3, UrtA (Prochlorococcus marinus, UniProt Q7V3V9, F192A)
T3 construct: 24-residue predicted signal peptide removed from 431-residue precursor (432 elsewhere in the source); C-terminal 6xHis tag, pET-22b, E. coli BL21(DE3); about 50 kDa; monomer; structure residues 38-431 described

UrtA [4] = target: T4, UrtA (Prochlorococcus marinus, UniProt Q7V3V9)
T4 construct: 24-residue predicted signal peptide removed from 431-residue precursor (432 elsewhere in the source); C-terminal 6xHis tag, pET-22b, E. coli BL21(DE3); about 50 kDa; monomer; structure residues 38-431 described
T4 sequence (Q7V3V9 25-431): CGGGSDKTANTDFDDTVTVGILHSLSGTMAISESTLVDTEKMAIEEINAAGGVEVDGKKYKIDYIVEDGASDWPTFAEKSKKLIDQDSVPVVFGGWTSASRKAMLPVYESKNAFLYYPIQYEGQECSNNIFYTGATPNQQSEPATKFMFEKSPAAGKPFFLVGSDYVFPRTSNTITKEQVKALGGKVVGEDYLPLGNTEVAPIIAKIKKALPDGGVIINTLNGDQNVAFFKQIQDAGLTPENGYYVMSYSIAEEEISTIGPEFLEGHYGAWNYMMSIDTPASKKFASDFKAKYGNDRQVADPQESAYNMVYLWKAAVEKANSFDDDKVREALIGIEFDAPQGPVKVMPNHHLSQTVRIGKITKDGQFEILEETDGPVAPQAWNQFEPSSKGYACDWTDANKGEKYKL

UrtA [5] = target: T5, UrtA (Prochlorococcus marinus, UniProt Q7V3V9, S274A)
T5 construct: 24-residue predicted signal peptide removed from 431-residue precursor (432 elsewhere in the source); C-terminal 6xHis tag, pET-22b, E. coli BL21(DE3); about 50 kDa; monomer; structure residues 38-431 described

UrtA [6] = target: T6, UrtA (Prochlorococcus marinus, UniProt Q7V3V9, W120A); conditions: pH 8.0, 20 mM Tris-HCl, 200 mM NaCl, 25 °C
T6 construct: 24-residue predicted signal peptide removed from 431-residue precursor (432 elsewhere in the source); C-terminal 6xHis tag, pET-22b, E. coli BL21(DE3); about 50 kDa; monomer; structure residues 38-431 described
T6 sequence (Q7V3V9 entry or part of it W120A): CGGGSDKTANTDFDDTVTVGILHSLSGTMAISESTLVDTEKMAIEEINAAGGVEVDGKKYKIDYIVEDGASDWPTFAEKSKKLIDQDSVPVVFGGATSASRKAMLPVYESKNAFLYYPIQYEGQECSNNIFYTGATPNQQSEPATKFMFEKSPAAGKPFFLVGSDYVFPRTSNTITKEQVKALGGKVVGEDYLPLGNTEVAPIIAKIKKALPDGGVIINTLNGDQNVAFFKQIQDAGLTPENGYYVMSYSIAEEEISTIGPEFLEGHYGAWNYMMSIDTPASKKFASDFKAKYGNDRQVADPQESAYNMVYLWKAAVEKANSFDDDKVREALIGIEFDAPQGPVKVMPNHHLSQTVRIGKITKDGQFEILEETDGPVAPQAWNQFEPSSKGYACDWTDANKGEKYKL

T3 sequence (Q7V3V9 entry or part of it F192A): as the sequence (Q7V3V9 entry or part of it W120A) above, with A96W, F168A counted along it
T2 sequence (Q7V3V9 entry or part of it Y141A): as the sequence (Q7V3V9 entry or part of it W120A) above, with A96W, Y117A counted along it
T5 sequence (Q7V3V9 entry or part of it S274A): as the sequence (Q7V3V9 entry or part of it W120A) above, with A96W, S250A counted along it
T1 sequence (Q7V3V9 entry or part of it E146A): as the sequence (Q7V3V9 entry or part of it W120A) above, with A96W, E122A counted along it

NC(N)=O [urea]
Kd (UrtA [1]): 3050 ± 609 nM
Kd (UrtA [2]): 7950 ± 1220 nM
Kd (UrtA [3]): 114 ± 26.7 nM
Kd (UrtA [4]): 141 ± 11.2 nM
Kd (UrtA [5]): 1280 ± 639 nM
Kd (UrtA [6]): the mutant W120A was unable to bind to urea
